What all share (format): cell-based
Test [1] deals with E. coli JM83 containing pUC with cloned czrB. The test can be described thus: Minimal inhibitory concentrations (MICs) for metal cations, JM83 containing pUC with cloned czrB. The conditions noted are these: clone +pUC-czrB.
Test [2] relates to E. coli JM83 containing pUC.
The next test has as its system E. coli JM83. The test can be described thus: Minimal inhibitory concentrations (MICs) for metal cations, E. coli JM83. The conditions noted are these: 40 h at 37° C.
The test system of test [3] is E. coli cultures. In words: Phage titers of E. coli clones. As to conditions: pHB102 vs pHB102-czrB; 10 and 22 h after induction. Here is the method: (§1) Individual clones were analysed by restriction digestion after 22 h of induction to confirm that they contained both the Thermus insert and the recombinant antibody gene. […] Immunoplate wells (Nunc) were coated with 100 μl of FITC-BSA and blocked with 5% skimmed milk in PBST. After washing, 100 μl of phage solutions containing 0.5% skimmed milk were added and incubated for 2 h at 25° C. Phage particles were detected using a peroxidase-conjugated anti-M13 antibody (1:3000 in PBST; Amersham Pharmacia Biotech Inc.) and development was carried out using a BM Blue POD soluble substrate (Roche Diagnostics). After stopping the reaction using 25 μl of 1 N H2SO4, the absorbance was read at 405 nm. […] The results are depicted in FIGS. 6 and 7.
FIG. 6 depicts phage titers of clones expressing czrB. The phage titers of clones containing pHB102 phagemid vector or pHB102-czrB expressed as colony forming units (cfu) were determined 10 and 22 h after induction.

In test [4] the test system is E. coli cells. In words: Growth of E. coli with czrB expressed from lac promoter in pUC-based vector. As to conditions: Plac induction; no bacteriophage, no recombinant antibody. From the text:
To investigate this theory further, czrB was expressed from a lac promoter in a standard pUC-based expression vector, in the absence of bacteriophage particles and the recombinant antibody used in experiments thus far. […] This raises the possibility that CzrB, in its full length form or as a truncated version, might function as an “universal chaperone”, which would facilitate the expression of any recombinant or heterologous proteins produced in an E. coli host.

The subject of test [5] is E. coli cells. The test can be described thus: Growth (OD600) of E. coli clones during bacteriophage and recombinant antibody production. As to conditions: pHB102 phagemid, during phage and antibody production. As for the experimental part: E. coli cells harbouring the Thermus library were inoculated to an OD600<0.05 in 10 ml 2xYT medium containing tetracycline (15 μg/ml), additional salts (8.6 mM NaCl; 2.5 mM KCl; 10 mM MgCl2) and 0.4% glucose. After 1 h at 37° C., 30 μg/ml chloramphenicol was added, followed by 10^10 pfu of helper phage (VCSM13 helper phage; Stratagene) at an OD600 of 0.5. Incubation at 50° C. for 5 min was followed by the addition of 50 ml 2xYT containing tetracycline, chloramphenicol, additional salts and 0.5 mM isopropyl-β-D-thiogalactoside (IPTG). The culture was shaken at 40° C. for 2 h and, after the addition of 30 μg/ml kanamycin, grown for a further 12-14 h at 40° C. Phage particles were precipitated from culture supernatants by two PEG precipitation steps and resuspended in 1 ml PBS (8 g NaCl, 0.24 g KH2PO4, 1.44 g Na2HPO4, 0.2 g KCl in 1 L, pH 7.4). Immunotubes (Nunc) were coated overnight at 4° C. with 1 μg/ml fluorescein-isothiocyanate coupled to bovine serum albumin (FITC-BSA) (Bothmann, H. and Plückthun, A (1998) supra) in PBS. […]
E. coli cells infected with phage were grown as described in Example 1. The OD600 was read at hourly intervals for the first 8-10 h after induction. […]

Test [6] relates to E. coli cultures. The test can be described thus: Anti-FITC ELISA of phage-displayed functional antibody. As to conditions: 10 and 22 h after induction. Here is the method: as §1
FIG. 7 depicts ELISA analysis of clones expressing czrB. […] Results are shown for samples taken 10 and 22 h after induction.
On the technique in general: In an ELISA, binding on a coated surface is turned into a signal by an enzyme label.

In test [7] the test system is E. coli cells. In words: Intracellular zinc concentration in E. coli clones (atomic absorption). As to conditions: 1 h incubation in 0, 1, 2, 5 mM extracellular zinc; vs JM83 and pUC alone. From the text:
Metal resistances of the type observed with the czrB clones can be the result of metal sequestering or modification of metal transport processes. However, based on reports of CzrB homologues in other organisms it was postulated that the protein CzrB provided resistance to heavy metal ions by an efflux mechanism rather than by metal sequestering. Therefore, the ability of the T. thermophilus CzrB protein to pump zinc ions out of the E. coli cells in which it was expressed was investigated. Intracellular zinc concentrations were measured as follows: E. coli clones were grown at 37° C. in LB medium (100 μg/ml ampicillin, 25 μg/ml streptomycin) in the presence or absence of 165 μM ZnCl2 until an OD600 of 1.0 was reached. After addition of 1, 2 or 5 mM ZnCl2, growth was continued for 30 min, 1 h or 2 h, with control cultures grown in the absence of ZnCl2. […] The zinc concentration was measured in the supernatant using an atomic absorption spectrophotometer (Varian SpectrAA-400 Plus), with standard solutions prepared immediately before use from commercial standards (Fisher Scientific). […] The results are shown in FIG. 3 which depicts a quantification of intracellular zinc levels in E. coli clones: JM83 (“JM83”), JM83 containing pUC (“pUC”), and JM83 containing pUC-czrB without (“czrB”) and with (“czrB (Zn)”) a zinc pre-induction step. […]

[8] abbreviates: pre-induction cadmium (80 μM CdCl2).
The mark [9] stands for this setting: pre-induction cobalt (220 μM CoCl2).
[10] abbreviates: pre-induction zinc (165 μM ZnCl2).
[11] abbreviates: clone +pUC, pre-induction cadmium (80 μM CdCl2).
Where [12] appears, read: clone +pUC, pre-induction cobalt (220 μM CoCl2).
Setting [13] is: clone +pUC, pre-induction none, 40 h at 37° C.
Setting [14] is: clone +pUC, pre-induction zinc (165 μM ZnCl2).

Like-named read-outs stand apart in the source and are kept apart here.

As for `[Cl][Cd][Cl]` [Cadmium, CdCl2], the MIC (in general, the least concentration at which growth counts as inhibited) in test [1] (setting [8]) came to 900 µM; in test [1] (setting [9]), 1100 µM; in test [1] (pre-induction none) it was 1000 µM; in test [1] (setting [10]), 1000 µM; in test [2] (setting [11]) it was 700 µM; in test [2] (setting [12]) it was 900 µM. Further, the minimum inhibitory concentration (MIC) in test [2] (setting [13]) amounted to 900 µM; in test [2] (setting [14]), 900 µM; with E. coli JM83 (clone JM83, pre-induction none) it was 900 µM.

With `[Cl-].[Cl-].[Co+2]` [Cobalt, CoCl2], the MIC in test [1] (setting [8]), in test [1] (setting [9]), in test [1] (pre-induction none), in test [1] (setting [10]), in test [2] and in test [2] (40 h at 37° C.) was 2100 µM in each case. The molecule further registered a minimum inhibitory concentration (MIC) in the test with E. coli JM83 of 2100 µM.

With `[Cl-].[Cl-].[Zn+2]` [Zinc, ZnCl2], the minimum inhibitory concentration (MIC) in test [1] (setting [8]) was 2200 µM; in test [1] (setting [9]), 2100 µM; in test [1] (pre-induction none), 1900 µM; in test [1] (setting [10]), 2500 µM; in test [2] (setting [11]), 1600 µM; in test [2] (setting [12]), 1600 µM. Also, the minimum inhibitory concentration (MIC) is 1600 µM in test [2] (setting [13]); 1600 µM in test [2] (setting [14]); 2000 µM against E. coli JM83 (clone JM83, pre-induction none).

B1: czrB: Polypeptide factor from Thermus thermophilus, 291 amino acids (SEQ ID NO: 1), co-expressed in E. coli (protein)
chain: MAEGAARLSLVVALLVLGLKAFAYLLTGSVALLSDALESLVNVAAALAALLALRVARKPPDQNHPFGHTKAEYVSAVLEGVLVVLAALWIAREALPRLLHPVPLEGLGLGLGVSLLASLLNGLLAYHLLKEGRRHRSPALTADGYHVLSDVLTSLGVVLGVGLAGLTGLWVLDPLLALAVAGQILFLGYRIVRESVGGLMDEGLPPEEVERIRAFLQERIRGRALEVHDLKTRRAGPRSFLEFHLVVRGDTPVEEAHRLCDELERALAQAFPGLQATIHVEPEGERKRTNP
modifications: Thermus thermophilus CzrB
As to B1, in the test on E. coli cultures [3], the “phage titres relative to cultures containing the vector alone” value was “two-fold higher”. Also, the “E. coli cell growth relative to cells containing the vector alone” value with E. coli cells [4] is recorded as “same pattern of E. coli cell growth”. The “cell densities attained relative to cells containing just the phagemid vector” value in the test with E. coli cells [5] is reported as “greater than 2 fold”. Besides, the “amount of functional antibody relative to cultures containing the vector alone” value with E. coli cultures [6] is “more than twice”. Moreover, the “levels of zinc in E. coli cells” value in the test with E. coli cells [7] is “significantly reduce”.

B2: partial czrB: Truncated form of the CzrB protein, 92 amino acids (SEQ ID NO: 2), C-terminal cytoplasmic tail (protein)
chain: MDEGLPPEEVERIRAFLQERIRGRALEVHDLKTRRAGPRSFLEFHLVVRGDTPVEEAHRLCDELERALAQAFPGLQATIHVEPEGERKRTNP
modifications: Thermus thermophilus CzrB
For B2, in the test with E. coli cultures [3], the “phage titres relative to cultures containing the vector alone” value is “intermediate between the full-length gene and the control culture”. Further, the growth characteristics entry in the test on E. coli cells [5] is “intermediate between the full-length czrB clone and cells containing the phagemid vector”. Besides, the “amount of functional antibody relative to cultures containing the vector alone” value in the test on E. coli cultures [6] was “intermediate between the full-length gene and the control culture”.

The values are drawn from US7723072B2, “Polypeptide factor from a thermophilic eubacterial species and use thereof in the production of functional, heterologous proteins in an expression host” (University of Limerick, priority 2003, dated 2010).
